In patent publication US7169787B2, “7-azaindoles, use thereof as phosphodiesterase 4 inhibitors and method for producing the same” (Elbion AG, priority 2000, dated 2007):

Tests used:
[1] = tested on: actively sensitized Brown Norway Rats; experiment: Inhibition of the late phase eosinophilia 48 hours after inhalative ovalbumin challenge; type: in vivo, rat; settings: 2 h before allergen challenge, BAL 48 h after challenge
Protocol: The inhibition of pulmonary eosinophilia infiltration by the inventive substances is tested on male Brown Norway Rats (200–250 g), which had been actively sensitized against ovalbumin (OVA). The rats were sensitized by subcutaneous injections of a suspension of 10 μg OVA together with 20 mg of aluminum hydroxide as adjuvant in 0.5 mL of physiological salt solution per animal on days 1, 14 and 21. In addition, the animals at the same time received Bordetella pertussis vaccine dilution injected 0.25 mL i.p. per animal. On the 28th day of the experiment, the animals are placed individually in open 1 L Plexiglas boxes, which are connected to a head-nose exposure device. The animals are exposed to an aerosol of 1.0% ovalbumin suspension (allergen challenge). The ovalbumin aerosol is produced by a nebulizer (Bird Micronebulizer, Palm Springs Calif., USA), which is operated with compressed air (0.2 MPa). The exposure time is one hour, normal controls being nebulized also for one hour with an aerosol of 0.9% salt solution.
Forty-eight hours after the allergen challenge, there is a massive migration of eosinophilic granulocytes into the lungs of the animals. At this time, the animals are anesthetized with an excess of ethyl urethane (1.5 g/kg of body weight i.p.) and a bronchoalveolar lavage (BAL) with 3×4 mL of Hank's balance solution is carried out. The total cell count and the number of eosinophilic granulocytes of the pooled BAL liquid are subsequently determined with an automatic cell differentiation instrument (Bayer Diagnostics Technicon HIE). For each animal, the eosinophiles (EOS) in the BAL are calculated in millions/animal: EOS/μl×BAL recovery (mL)=EOS/animal.
For each test, 2 control groups were run (nebulization with physiological salt solution and nebulization with OVA solution).
The percentage inhibition of the eosinophilia of the experimental group, treated with substance, was calculated according to the following formula: {((OVAC−SC)−(OVAD−SC))/(OVAC−SC)}×100%=% inhibition (SC=vehicle-treated control group challenged with 0.9% salt solution; OVAC=vehicle-treated control group challenged with 1% ovalbumin suspension; OVAD=substance-treated experimental group challenged with 1% ovalbumin suspension)
The test substances are applied i.p. or orally as a suspension in 10% polyethylene glycol 300 and 0.5% 5-hydroxyethylcellulose for two hours before the allergen challenge. The control groups are treated with the vehicle in accordance with the application form of the test substance.

Lewis Rats = experiment: Inhibition of the lipopolysaccharide (LPS)-induced lung neutrophilia; type: in vivo, rat; settings: 1 mg/kg p.o., 2 h before LPS provocation; BAL 6 h after provocation
Protocol: The inhibition of pulmonary neutrophil infiltration by the inventive substances is tested on male Lewis Rats (250–350 g). On the day of the experiments, the animals are placed individually in open 1 L Plexiglas boxes, which are connected to a head-nose exposure device. The animals are exposed to an aerosol of a lipopolysaccharide suspension (100 μg LPS/mL of 0.1% hydroxylamine solution) in PBS (LPS provocation). The LPS/hydroxylamine aerosol is nebulized by a nebulizer (Bird Micronebulizer, Palm Springs Calif., USA), which is operated with compressed air (0.2 MPa). The exposure time is 40 minutes, normal controls being nebulized also for 40 minutes with an aerosol of 0.1% hydroxylamine solution in PBS.
Six hours after the LPS provocation, there is a maximum, massive migration of neutrophil granulocytes into the lungs of the animals. At this time, the animals are anesthetized with an excess of ethyl urethane (1.5 g/kg of body weight i.p.) and a bronchoalveolar lavage (BAL) with 3×4 mL of Hank's balance solution is carried out. The total cell count and the number of neutrophil granulocytes of the pooled BAL liquid are subsequently determined with an automatic cell differentiation instrument (Bayer Diagnostics Technicon HIE). For each animal, the neutrophiles (NEUTRO) in the BAL are calculated in millions/animal: NEUTRO/μl×BAL recovery (mL)=NEUTRO/animal.
For each test, 2 control groups were also run (nebulization with 0.1% hydroxylamine solution in PBS and nebulization with 100 μg LPS/mL of 0.1% hydroxylamine solution in PBS).
The percentage inhibition of the neutrophilia of the experimental group, treated with substance, was calculated according to the following formula: {((LPSC−SC)−(LPSD−SC))/(LPSC−SC)}×100%=% inhibition SC=vehicle-treated control group challenged with 0.1% hydroxylamine solution; LPSC=vehicle-treated control group challenged with LPS (100 μg/mL 0.1% hydroxylamine solution); LPSD=substance-treated experimental group challenged with LPS (100 μg/mL 0.1% hydroxylamine solution) […]

| Compound | Inhibition of Eosinophilia ([1]; 10 mg/kg i.p.) [%] | Inhibition of Eosinophilia ([1]; 10 mg/kg p.o.) [%] | Inhibition of neutrophilia (table titled Inhibition of Eosinophilia) (Lewis Rats) [%] | melting point [°C] |
| --- | --- | --- | --- | --- |
| O=C(Nc1c(Cl)cncc1Cl)C(=O)c1cn(Cc2ccc(F)cc2)c2ncccc12 [Example 14] | 62 | 59 | 80 |  |
| CC(C)Cn1cc(C(=O)C(=O)Nc2c(Cl)cncc2Cl)c2cccnc21 [Example 27] | 50 | 70 | 52 | 152 to 154 |
